Reference: US20020137929A1, “1 - (3-heterocyclylphenyl) isothiourea, -isourea, -guanidine and -amidine herbicidal agents” (Intellectual Property Department, BASF Aktiengesellschaft, priority 1998, published 2002)

How the values were obtained:
SETVI (Foxtail, Green) [1] = experiment: Preemergence herbicidal evaluation; assay type: in vivo, Setaria viridis; details: rated 4-5 weeks after treatment, rating scale 0-9
Procedure, shortened: (§1)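 Herbicidal effect scored visually, 0-9, at 4 to 5 weeks against a control; compound applied preemergence by aqueous acetone spray to seeded soil at about 0.0156 to 0.500 kg/ha.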

AMBEL (Ragweed, Common) = experiment: Preemergence herbicidal evaluation; assay type: in vivo, Ambrosia artemisifolia; details: rated 4-5 weeks after treatment, rating scale 0-9
Procedure, shortened: as §1

SETVI (Foxtail, Green) [2] = experiment: Postemergence herbicidal evaluation; assay type: in vivo, Setaria viridis; details: postemergence
Procedure, shortened: (§2)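 Visual 0–9 rating versus control (stand, vigor, malformation, size, chlorosis, overall appearance), taken four to five weeks post-spray. Two-week-old seedlings received roughly 0.0156–0.500 kg/ha active in acetone/water (50/50) with 0.5% TWEEN 20 via nozzle at 40 psi.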

ORYSAT (Rice, Tebonnet) = experiment: Postemergence herbicidal evaluation; assay type: in vivo, Oryza sativa, (L.) Tebonnet; details: postemergence
Procedure, shortened: as §2

CYPIR (Rice Flatsedge) = experiment: Preemergence weed control under flooded paddy conditions; assay type: in vivo, Cyperus iria; details: rated 3-4 weeks after treatment
Procedure, shortened: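 Visual injury scored 0-9 against control three to four weeks post-treatment, greenhouse-grown. Application: acetone/water (50/50) solutions dosed directly into flood water (1.5-3 cm over silt loam, planted top 0.5 cm), roughly 0.0313 to 0.500 kg/ha active ingredient.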

[3] = test system: GLXMAW (Soybean, Williams); experiment: Postemergence herbicidal evaluation; assay type: in vivo, Glycine max, (L.) Merr. cv Williams; details: postemergence
Procedure, shortened: as §2

GALAP (Galium) = experiment: Preemergence herbicidal evaluation; assay type: in vivo, Galium aparine; details: rated 4-5 weeks after treatment, rating scale 0-9
Procedure, shortened: as §1

[4] = test system: TRZAWR (Wheat, Winter, cv Riband); experiment: Postemergence herbicidal evaluation; assay type: in vivo, Triticum aestivum; details: postemergence
Procedure, shortened: as §2

[5] = test system: CHEAL (Lambsquarters, Common); experiment: Postemergence herbicidal evaluation; assay type: in vivo, Chenopodium album; details: postemergence
Procedure, shortened: as §2

ABUTH (Velvetleaf) = experiment: Postemergence herbicidal evaluation; assay type: in vivo, Abutilon theophrasti; details: postemergence
Procedure, shortened: as §2

ZEAMX (Corn, Field) = experiment: Postemergence herbicidal evaluation; assay type: in vivo, Zea mays; details: postemergence
Procedure, shortened: as §2

SMILES: Cn1c(C(F)(F)F)cc(=O)n(-c2cc(N=C3SCC(=O)N3Cc3ccncc3)c(Cl)cc2F)c1=O [Compound 133, 3-{4-Chloro-2-fluoro-5-{[4-oxo-3-(4-pyridylmethyl)-2-thiazolidinylidene]amino}phenyl}-1-methyl-6-(trifluoromethyl)-2,4(1H,3H)-pyrimidinedione]
- Preemergence herbicidal rating SETVI (SETVI (Foxtail, Green) [1]; rate 0.0313 kg/ha): 0.0
- Preemergence herbicidal rating SETVI (SETVI (Foxtail, Green) [1]; rate 0.0625 kg/ha): 0.0
- Preemergence herbicidal rating SETVI (SETVI (Foxtail, Green) [1]; rate 0.1250 kg/ha): 0.0
- Preemergence herbicidal rating SETVI (SETVI (Foxtail, Green) [1]; rate 0.2500 kg/ha): 0.0
- Preemergence herbicidal rating AMBEL (AMBEL (Ragweed, Common); rate 0.0313 kg/ha): 0.0
- Preemergence herbicidal rating AMBEL (AMBEL (Ragweed, Common); rate 0.0625 kg/ha): 0.0
- Preemergence herbicidal rating AMBEL (AMBEL (Ragweed, Common); rate 0.1250 kg/ha): 0.0
- Preemergence herbicidal rating AMBEL (AMBEL (Ragweed, Common); rate 0.2500 kg/ha): 1.0
- Herbicidal rating SETVI (SETVI (Foxtail, Green) [2]; rate 0.0156 kg/ha): 1.0
- Herbicidal rating SETVI (SETVI (Foxtail, Green) [2]; rate 0.0313 kg/ha): 1.0
- Herbicidal rating SETVI (SETVI (Foxtail, Green) [2]; rate 0.0625 kg/ha): 2.0
- Herbicidal rating ORYSAT (ORYSAT (Rice, Tebonnet); rate 0.0156 kg/ha): 2.5
- Herbicidal rating ORYSAT (ORYSAT (Rice, Tebonnet); rate 0.0313 kg/ha): 2.5
- Herbicidal rating ORYSAT (ORYSAT (Rice, Tebonnet); rate 0.0625 kg/ha): 3.0
- herbicidal effect rating, CYPIR (CYPIR (Rice Flatsedge); 0.0313 kg/ha): 0.0
- herbicidal effect rating, CYPIR (CYPIR (Rice Flatsedge); 0.0625 kg/ha): 0.0
- herbicidal effect rating, CYPIR (CYPIR (Rice Flatsedge); 0.1250 kg/ha): 2.0
- herbicidal effect rating, CYPIR (CYPIR (Rice Flatsedge); 0.2500 kg/ha): 3.0
- Herbicidal rating GLXMAW ([3]; rate 0.0156 kg/ha): 5.0
- Herbicidal rating GLXMAW ([3]; rate 0.0313 kg/ha): 5.0
- Herbicidal rating GLXMAW ([3]; rate 0.0625 kg/ha): 5.0
- Preemergence herbicidal rating GALAP (GALAP (Galium); rate 0.0313 kg/ha): 0.0
- Preemergence herbicidal rating GALAP (GALAP (Galium); rate 0.0625 kg/ha): 0.0
- Preemergence herbicidal rating GALAP (GALAP (Galium); rate 0.1250 kg/ha): 0.0
- Preemergence herbicidal rating GALAP (GALAP (Galium); rate 0.2500 kg/ha): 0.0
- Herbicidal rating TRZAWR ([4]; rate 0.0156 kg/ha): 2.5
- Herbicidal rating TRZAWR ([4]; rate 0.0313 kg/ha): 3.0
- Herbicidal rating TRZAWR ([4]; rate 0.0625 kg/ha): 3.5
- Herbicidal rating CHEAL ([5]; rate 0.0156 kg/ha): 9.0
- Herbicidal rating CHEAL ([5]; rate 0.0313 kg/ha): 6.0
- Herbicidal rating CHEAL ([5]; rate 0.0625 kg/ha): 9.0
- Herbicidal rating ABUTH (ABUTH (Velvetleaf); rate 0.0156 kg/ha): 9.0
- Herbicidal rating ABUTH (ABUTH (Velvetleaf); rate 0.0313 kg/ha): 9.0
- Herbicidal rating ABUTH (ABUTH (Velvetleaf); rate 0.0625 kg/ha): 9.0
- Herbicidal rating ZEAMX (ZEAMX (Corn, Field); rate 0.0156 kg/ha): 4.0
- Herbicidal rating ZEAMX (ZEAMX (Corn, Field); rate 0.0313 kg/ha): 4.0
- Herbicidal rating ZEAMX (ZEAMX (Corn, Field); rate 0.0625 kg/ha): 4.0
